In data set [1] the test system is lean rats. Description: Rat acute food intake study. It is filed as in vivo. The following applies: lean male Sprague Dawley rats, 20 nmol/kg subcutaneously. Put shortly: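 Male Sprague Dawley rats (n=7/group), fasted 6 h, received 20 nmol/kg test compound or 60 nmol/kg pramlintide subcutaneously 30 min before food return at dark onset. Food intake recorded automatically in home cages over 3 days, binned hourly and analysed as cumulative dark-period intake; body weight taken daily.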

Data set [2] in a line: Pharmacokinetic determination via IV and SC administration in Sprague Dawley rats. The following applies: male, rat, plasma, 20 nmol/kg.
Procedure: PK studies were performed to determine the half-life (T1/2) of test peptides. T1/2 describes the time taken for the maximum plasma concentration (Cmax) of a test substance to halve its steady-state concentration when in circulation.
Male SD rats were purchased from Si Bei Fu Laboratory Animal Technology Co. Ltd (China). The animals were 6-8 weeks old with body weights of 200-300 g on the dosing date. The animals were housed in a 12-hour light/12-hour dark cycle environment and were fasted overnight before dosing. The body weight of the animals were recorded before dosing, 24 h and 48 h post dosing . Animals had free access to food and drinks, and the food consumption was quantified every day.
Test articles were administered at 20 nmol/kg. Blood samples were collected from each animal via Jugular vein.
The blood samples were transferred into eppendorf low binding tube containing K2 EDTA. Above 0.150 mL blood were collected at each time point. Blood samples were centrifuged at 4,000 g for 5 minutes at 4° C. to obtain plasma. The plasma samples were stored frozen at −75±15° C. until analysis.
Concentrations of the test articles in the plasma samples were analyzed using a LC-MS/MS method. Data acquisition was performed by LabSolution version 5.89 software (Shimadzu, Kyoto, Japan). Data statistics were performed using Excel 97-2003 software. The pharmacokinetic parameters of test articles were calculated using a non-compartmental approach with Phoenix™ VVinNonlin® 6.1.
The following pharmacokinetic parameters were calculated, whenever possible from the plasma concentration versus time data: • IV administration: T1/2, C0, AUClast, AUCinf, MRTinf, Cl, Vss, Number of Points for Regression. • SC administration: Tmax, Cmax, AUClast, AUCinf, MRTinf, F, Number of Points for Regression.
The target of data set [3] is T1, rat amylin receptor (calcitonin receptor co-expressed with receptor activity modifying protein, RAMP3) (Rat AMYR3) (Rattus norvegicus, UniProt P32214+Q9JJ73).
T1 construct: expressed in transfected cells
T1 sequence (P32214 25-516): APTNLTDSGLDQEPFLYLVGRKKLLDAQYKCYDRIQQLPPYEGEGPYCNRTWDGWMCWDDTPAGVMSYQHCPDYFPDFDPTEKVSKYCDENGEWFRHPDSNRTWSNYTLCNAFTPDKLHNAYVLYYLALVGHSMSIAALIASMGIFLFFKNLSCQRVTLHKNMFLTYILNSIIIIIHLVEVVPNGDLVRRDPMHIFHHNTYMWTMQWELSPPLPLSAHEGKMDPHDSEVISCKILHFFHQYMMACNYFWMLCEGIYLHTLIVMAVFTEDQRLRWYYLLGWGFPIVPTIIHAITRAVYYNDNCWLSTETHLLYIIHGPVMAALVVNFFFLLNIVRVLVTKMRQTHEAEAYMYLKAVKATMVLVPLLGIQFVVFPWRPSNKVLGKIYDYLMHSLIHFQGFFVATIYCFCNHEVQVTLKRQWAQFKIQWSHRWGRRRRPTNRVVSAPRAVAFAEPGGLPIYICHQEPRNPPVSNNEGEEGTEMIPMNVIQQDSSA
T1 sequence (Q9JJ73 23-147 partner): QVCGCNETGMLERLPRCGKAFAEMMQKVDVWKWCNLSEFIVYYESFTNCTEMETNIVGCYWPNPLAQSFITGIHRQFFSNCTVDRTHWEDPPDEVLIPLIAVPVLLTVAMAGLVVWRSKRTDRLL
The data set is described as follows: cAMP production in HEK cells with stable recombinant expression of rat amylin receptor (Rat AMYR3). It is filed as cell-based. The following applies: assay buffer with 0.1% BSA. In a few lines: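 Thawed cells in HBSS/0.1% BSA/25 mM HEPES pH 7.4 with 0.5 mM IBMX were incubated with peptides 30 min at room temperature; cAMP read by HTRF. EC50 from 4-parameter fit of % activation relative to maximal amylin or calcitonin effect.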
In general terms: Cyclic AMP is a second messenger, typically raised through Gs and lowered through Gi signalling.

The text below walks through data of US20240067693A1, “POLYPEPTIDES AND USES THEREOF” (MEDIMMUNE LIMITED, priority 2020, published 2024).

As usually defined, the half-life is how long it takes for the measured level to halve. Low readings indicate rapid decline, high ones slow decline. Broadly, the EC50 is the concentration giving half of the maximal effect.

The structures appear in SMILES notation. Numbered stars: 1 amine (or outer) side, 2 acyl side, 3 side chain; on linkers, the order of the positions; unused ones are H or OH. Bridge positions count the residues as written; N and C are the ends. Square brackets hold non-standard residues; d marks the D form. Side chains are listed from the residue outwards. Peptide text beside a SMILES is read from it. * marks the point of attachment. C18 diacid = O=C(O)CCCCCCCCCCCCCCCCC(=O)*; γGlu = O=C(O)[C@H](CCC(=O)[*:2])N[*:1]; αMeF = C[C@](N)(Cc1ccccc1)C(=O)O; Aib = CC(C)(N)C(=O)O

Consider `CC[C@H](C)[C@H](NC(=O)[C@@H]1CCCN1C(=O)CNC(=O)[C@](C)(Cc1ccccc1)NC(=O)[C@H](CC(N)=O)NC(=O)[C@H](CC(N)=O)NC(=O)[C@H](CO)NC(=O)[C@H](CO)NC(=O)[C@H](Cc1c[nH]cn1)NC(=O)[C@H](CCCNC(=N)N)NC(=O)[C@H](CC(C)C)NC(=O)[C@H](Cc1ccccc1)NC(=O)[C@H](CC(N)=O)NC(=O)[C@H](C)NC(=O)[C@H](CC(C)C)NC(=O)[C@H](CCCNC(=N)N)NC(=O)[C@H](CCC(N)=O)NC(=O)[C@@H](NC(=O)[C@H](C)NC(=O)[C@@H]1CSSC[C@H](NC(=O)[C@@H](N)CCCCNC(=O)CC[C@H](NC(=O)CC[C@H](NC(=O)CCCCCCCCCCCCCCCCC(=O)O)C(=O)O)C(=O)O)C(=O)N[C@@H](CC(N)=O)C(=O)N[C@@H]([C@@H](C)O)C(=O)N[C@@H](C)C(=O)N[C@@H]([C@@H](C)O)C(=O)N1)[C@@H](C)O)C(=O)N[C@@H](CC(C)C)C(=O)N1CCC[C@H]1C(=O)N1CCC[C@H]1C(=O)N[C@H](C(=O)N[C@@H](CC(N)=O)C(=O)N[C@H](C(=O)NCC(=O)N[C@@H](CO)C(=O)N[C@@H](CC(N)=O)C(=O)N[C@H](C(=O)N[C@@H](Cc1ccc(O)cc1)C(N)=O)[C@@H](C)O)C(C)C)[C@@H](C)O` [Peptide 20, K(γE-γE-C18diacid)[CNTATC]ATQRLANFLRHSSNN(αMePhe)GPILPPTNVGSNTY-amide] (H-K([γGlu-γGlu-C18 diacid])CNTATCATQRLANFLRHSSNN[αMeF]GPILPPTNVGSNTY-NH2; disulfide 2-7; N-terminus assumed), for which, in data set [1], the “Cummulative food intake (% vehicle treated intake) At 12 h” value came to 27 % vehicle treated intake, the “Cummulative food intake (% vehicle treated intake) At 24 h” value is 26.2 % vehicle treated intake and the “Cummulative food intake (% vehicle treated intake) At 48 h” value turned out to be 49.7 % vehicle treated intake. In data set [2] (iv), this compound showed a half-life of 10 h. Besides, the half-life in data set [2] (sc) is 10.8 h. Further, in data set [3], the EC50 was 10.4 pM.

Take `CC[C@H](C)[C@H](NC(=O)[C@@H]1CCCN1C(=O)CNC(=O)[C@](C)(Cc1ccccc1)NC(=O)[C@H](CC(N)=O)NC(=O)[C@H](CC(N)=O)NC(=O)[C@H](CO)NC(=O)[C@H](CO)NC(=O)[C@H](Cc1c[nH]cn1)NC(=O)[C@H](CCCNC(=N)N)NC(=O)[C@H](CC(C)C)NC(=O)[C@H](Cc1ccccc1)NC(=O)[C@H](CCC(=O)O)NC(=O)[C@H](C)NC(=O)[C@H](CC(C)C)NC(=O)[C@H](CCCNC(=N)N)NC(=O)[C@H](CCC(N)=O)NC(=O)[C@@H](NC(=O)[C@H](C)NC(=O)[C@@H]1CSSC[C@H](NC(=O)CC[C@H](NC(=O)CCCCCCCCCCCCCCCCC(=O)O)C(=O)O)C(=O)N[C@@H](CC(N)=O)C(=O)N[C@@H]([C@@H](C)O)C(=O)N[C@@H](C)C(=O)N[C@@H]([C@@H](C)O)C(=O)N1)[C@@H](C)O)C(=O)N[C@@H](CC(C)C)C(=O)N1CCC[C@H]1C(=O)N1CCC[C@H]1C(=O)N[C@H](C(=O)N[C@@H](CC(N)=O)C(=O)N[C@H](C(=O)NCC(=O)N[C@@H](CO)C(=O)N[C@@H](CC(N)=O)C(=O)N[C@H](C(=O)N[C@@H](Cc1ccc(O)cc1)C(N)=O)[C@@H](C)O)C(C)C)[C@@H](C)O` [Peptide 10, C18diacid-γE-[CNTATC]ATQRLAEFLRHSSNN(αMePhe)GPILPPTNVGSNTY-amide] ({C18 diacid-γGlu}-CNTATCATQRLAEFLRHSSNN[αMeF]GPILPPTNVGSNTY-NH2; disulfide 1-6): in data set [1], the “Cummulative food intake (% vehicle treated intake) At 12 h” value was 18.8 % vehicle treated intake, the “Cummulative food intake (% vehicle treated intake) At 24 h” value is listed as 24.6 % vehicle treated intake and the “Cummulative food intake (% vehicle treated intake) At 48 h” value stood at 46.6 % vehicle treated intake. The compound further showed a half-life in data set [2] (iv) of 10.1 h. The half-life in data set [2] (sc) is 8.8 h. For the same compound, in data set [3], the EC50 is 12.1 pM.

In the case of `CC[C@H](C)[C@H](NC(=O)[C@@H]1CCCN1C(=O)CNC(=O)[C@H](Cc1ccccc1)NC(=O)[C@H](CC(N)=O)NC(=O)[C@H](CC(N)=O)NC(=O)[C@H](CO)NC(=O)[C@H](CO)NC(=O)[C@H](Cc1c[nH]cn1)NC(=O)C(C)(C)NC(=O)[C@H](CC(C)C)NC(=O)[C@H](Cc1ccccc1)NC(=O)[C@H](CC(N)=O)NC(=O)[C@H](C)NC(=O)[C@H](CC(C)C)NC(=O)[C@H](CCCNC(=N)N)NC(=O)[C@H](CCC(N)=O)NC(=O)[C@@H](NC(=O)[C@H](C)NC(=O)[C@@H]1CSSC[C@H](NC(=O)[C@H](CCCCN)NC(=O)[C@@H](N)CCCCNC(=O)CC[C@H](NC(=O)CCCCCCCCCCCCCCCCC(=O)O)C(=O)O)C(=O)N[C@@H](CC(N)=O)C(=O)N[C@@H]([C@@H](C)O)C(=O)N[C@@H](C)C(=O)N[C@@H]([C@@H](C)O)C(=O)N1)[C@@H](C)O)C(=O)N[C@@H](CC(C)C)C(=O)N1CCC[C@H]1C(=O)N1CCC[C@H]1C(=O)N[C@H](C(=O)N[C@@H](CC(N)=O)C(=O)N[C@H](C(=O)NCC(=O)N[C@@H](CO)C(=O)N[C@@H](CC(N)=O)C(=O)N[C@H](C(=O)N[C@@H](Cc1ccc(O)cc1)C(N)=O)[C@@H](C)O)C(C)C)[C@@H](C)O` [Peptide 129] (H-K([γGlu-C18 diacid])KCNTATCATQRLANFL[Aib]HSSNNFGPILPPTNVGSNTY-NH2; disulfide 3-8; N-terminus assumed), in data set [1], the “Cummulative food intake (% vehicle treated intake) At 12 h” value turned out to be 29 % vehicle treated intake, the “Cummulative food intake (% vehicle treated intake) At 24 h” value is on record as 32.4 % vehicle treated intake and the “Cummulative food intake (% vehicle treated intake) At 48 h” value is listed as 51 % vehicle treated intake. Also, the half-life in data set [2] (iv) was 10.3 h. The compound also showed a half-life in data set [2] (sc) of 9 h. For the same compound, the EC50 in data set [3] amounted to 11.2 pM.
